Data: US12570659B2, “Bicyclic heteroaryl compounds useful as IRAK4 inhibitors” (BRISTOL-MYERS SQUIBB COMPANY, priority 2019, dated 2026)

Experiments:
[1] = system: TLR2 agonist-stimulated IL-6 in human whole blood; assay: IRAK4 Whole Blood Assay; assay type: cell-based; conditions: lipoteichoic acid 10 μg/mL, 5 hours, IL-6 levels
Description: Human whole blood containing the anti-coagulant ACD-A was plated in 384-well plate (25 μL/well) and incubated with compounds for 60 minutes at 37° C. in a 5% CO2 incubator. The blood was stimulated with a TLR2 agonist, 10 μg/mL final concentration of lipoteichoic acid (Invivogen, San Diego, CA) in 25 μL RPMI (Gibco) for 5 hours in a 5% CO2 incubator. At the end of the incubation, plates were centrifuged at 2300 rpm for 5 minutes. Supernatants were harvested and analyzed for IL-6 levels by Flow Cytometry beads assay (BD Biosciences, San Jose, CA).

[2] = target: IRAK4 (Homo sapiens (Human), UniProt Q9NWZ3); assay: IRAK4 Inhibition Assay; assay type: biochemical; conditions: ATP 500 μM; IRAK4 0.6 nM; 60 min room temperature
IRAK4, sequence (Q9NWZ3 whole entry, species assumed): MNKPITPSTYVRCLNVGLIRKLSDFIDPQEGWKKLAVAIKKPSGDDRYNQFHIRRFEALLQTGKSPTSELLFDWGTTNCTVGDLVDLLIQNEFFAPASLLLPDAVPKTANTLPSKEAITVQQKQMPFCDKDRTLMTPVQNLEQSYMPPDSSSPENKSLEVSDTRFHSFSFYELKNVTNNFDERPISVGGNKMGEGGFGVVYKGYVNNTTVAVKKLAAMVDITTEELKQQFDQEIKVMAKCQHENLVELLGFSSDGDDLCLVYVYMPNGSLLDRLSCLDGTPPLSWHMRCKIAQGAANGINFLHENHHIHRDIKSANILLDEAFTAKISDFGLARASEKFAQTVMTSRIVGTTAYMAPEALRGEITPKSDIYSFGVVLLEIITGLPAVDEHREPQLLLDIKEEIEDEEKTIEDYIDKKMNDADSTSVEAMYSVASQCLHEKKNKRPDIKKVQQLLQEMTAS
How it was run: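 Phosphorylated and unphosphorylated fluorescent substrate were resolved by microfluidic electrophoresis after termination with 35 mM EDTA. The room-temperature kinase reaction lasted 60 min after IRAK4, substrates and test compound were combined; vehicle-only defined 0% and no-enzyme 100% inhibition.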

[3] = target: JAK3 kinase (Homo sapiens (Human), UniProt P52333); assay: JAK3 Homogeneous Time Resolved Fluorescence (HTRF) Assay; assay type: binding; conditions: for IC50: competition binding with fluorescein-labeled ATP competitive probe; for Ratio of JAK3 IC50 to IRAK4 IC50: selectivity for IRAK4 over JAK3
JAK3 kinase, sequence (P52333 whole entry): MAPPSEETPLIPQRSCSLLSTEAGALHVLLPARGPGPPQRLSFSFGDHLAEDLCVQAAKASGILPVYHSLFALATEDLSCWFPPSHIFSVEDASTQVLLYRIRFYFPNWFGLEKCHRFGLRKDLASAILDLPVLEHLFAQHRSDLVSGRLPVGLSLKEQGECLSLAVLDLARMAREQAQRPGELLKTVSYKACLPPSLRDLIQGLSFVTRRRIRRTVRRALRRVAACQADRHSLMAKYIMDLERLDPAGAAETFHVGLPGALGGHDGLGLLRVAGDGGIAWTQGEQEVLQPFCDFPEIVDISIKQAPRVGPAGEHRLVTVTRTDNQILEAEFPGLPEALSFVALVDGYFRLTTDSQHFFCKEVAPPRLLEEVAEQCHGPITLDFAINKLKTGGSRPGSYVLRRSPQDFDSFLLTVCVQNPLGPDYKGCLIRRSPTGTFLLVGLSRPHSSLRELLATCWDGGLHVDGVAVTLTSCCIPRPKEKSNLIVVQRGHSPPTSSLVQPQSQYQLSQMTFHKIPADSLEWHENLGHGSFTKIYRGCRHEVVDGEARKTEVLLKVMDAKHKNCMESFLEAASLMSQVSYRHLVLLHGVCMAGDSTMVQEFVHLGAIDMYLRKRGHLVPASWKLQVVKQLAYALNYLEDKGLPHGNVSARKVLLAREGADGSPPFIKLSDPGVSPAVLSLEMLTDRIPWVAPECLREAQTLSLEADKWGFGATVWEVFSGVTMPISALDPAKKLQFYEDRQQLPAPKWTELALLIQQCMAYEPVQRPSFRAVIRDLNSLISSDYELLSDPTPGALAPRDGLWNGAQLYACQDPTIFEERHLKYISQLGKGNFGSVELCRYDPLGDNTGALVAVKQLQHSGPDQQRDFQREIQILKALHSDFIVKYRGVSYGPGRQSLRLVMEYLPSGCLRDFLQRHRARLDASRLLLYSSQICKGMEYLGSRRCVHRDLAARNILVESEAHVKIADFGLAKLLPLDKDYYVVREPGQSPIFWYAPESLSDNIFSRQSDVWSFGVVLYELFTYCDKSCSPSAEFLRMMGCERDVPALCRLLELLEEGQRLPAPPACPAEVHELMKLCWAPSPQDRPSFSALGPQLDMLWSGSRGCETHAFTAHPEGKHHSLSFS
How it was run: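 IC50 reflects displacement of a fluorescein-labeled ATP-site probe (at its Kd) from 1 nM tagged JAK3, detected via 0.2 nM Tb anti-His or anti-GST antibody. One-hour incubation; 495 and 520 nm emission ratios, background-subtracted, normalized to maximum signal; 11-point percent inhibition, 4-parameter logistic.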

IC50 [1] [nM] | Compound | IC50 [2] [nM] | IC50 [3] [nM] | Ratio of JAK3 IC50 to IRAK4 IC50 [3]
> 10000 | CC(C)Nc1c(C(=O)NC[C@@H](F)C(C)(C)O)cnn2cc(-c3cccc(C#N)c3)cc12 [Example 2, (R)-6-(3-cyanophenyl)-N-(2-fluoro-3-hydroxy-3-methylbutyl)-4-(isopropylamino) pyrrolo[1,2-b]pyridazine-3-carboxamide] | 12 | – | –
1310 | CC(C)Nc1c(C(=O)NCCC(C)(C)O)cnn2cc(-c3ccncc3F)cc12 [Example 77, 6-(3-fluoropyridin-4-yl)-N-(3-hydroxy-3-methylbutyl)-4-(isopropylamino)pyrrolo[1,2-b]pyridazine-3-carboxamide] | 4.3 | – | –
– | CC(C)Nc1c(C(=O)NC[C@@H](F)C(C)(C)O)cnc2cc(-c3cccc(Cl)n3)nn12 [Example 153, (R)-2-(6-chloropyridin-2-yl)-N-(2-fluoro-3-hydroxy-3-methylbutyl)-7-(isopropylamino) pyrazolo[1,5-a]pyrimidine-6-carboxamide] | 1230 | > 10000 | >8
– | CC(C)Nc1c(C(=O)NC[C@@H](F)C(C)(C)O)cnc2cc(-c3cc[nH]c(=O)c3)nn12 [Example 154, (R)—N-(2-fluoro-3-hydroxy-3-methylbutyl)-7-(isopropylamino)-2-(2-oxo-1,2-dihydropyridin-4-yl)pyrazolo[1,5-a]pyrimidine-6-carboxamide] | 93 | > 50000 | >538
– | CC(C)(C)CNc1c(C(=O)NC[C@@H](F)C(C)(C)O)cnc2cc(-c3cccnc3)nn12 [Example 155, (R)—N-(2-fluoro-3-hydroxy-3-methylbutyl)-7-(neopentylamino)-2-(pyridin-3-yl)pyrazolo[1,5-a]pyrimidine-6-carboxamide] | 90 | > 50000 | >556
– | CNC(=O)c1cncc(-c2cc3ncc(C(=O)NC[C@@H](F)C(C)(C)O)c(NC(C)C)n3n2)c1 [Example 156, (R)—N-(2-fluoro-3-hydroxy-3-methylbutyl)-7-(isopropylamino)-2-(5-(methylcarbamoyl)pyridin-3-yl)pyrazolo[1,5-a]pyrimidine-6-carboxamide] | 910 | > 10000 | >11
– | CC(C)Nc1c(C(=O)NC[C@@H](F)C(C)(C)O)cnc2cc(-c3cccc(N)c3)nn12 [Example 157, (R)-2-(3-aminophenyl)-N-(2-fluoro-3-hydroxy-3-methylbutyl)-7-(isopropylamino) pyrazolo[1,5-a]pyrimidine-6-carboxamide] | 31 | > 50000 | >1613
– | CC(C)(O)[C@H](F)CNC(=O)c1cnc2cc(-c3cccnc3)nn2c1N[C@H]1CC[C@H](C(C)(C)O)CC1 [Example 159, N—((R)-2-fluoro-3-hydroxy-3-methylbutyl)-7-(((1r,4R)-4-(2-hydroxypropan-2-yl)cyclohexyl)amino)-2-(pyridin-3-yl)pyrazolo[1,5-a]pyrimidine-6-carboxamide] | 53 | > 50000 | >943
– | CC(C)(O)[C@H](F)CNC(=O)c1cnc2cc(-c3ccncc3F)nn2c1NCCC1CCCCO1 (stereo partly drawn) [Example 160, N—((R)-2-fluoro-3-hydroxy-3-methylbutyl)-2-(3-fluoropyridin-4-yl)-7-((2-(tetrahydro-2H-pyran-2-yl)ethyl)amino)pyrazolo[1,5-a]pyrimidine-6-carboxamide] | 45 | > 50000 | >1111
– | CC(C)Nc1c(C(=O)NCCNS(C)(=O)=O)cnc2cc(-c3ccncc3F)nn12 [Example 161, 2-(3-fluoropyridin-4-yl)-7-(isopropylamino)-N-(2-(methylsulfonamido)ethyl) pyrazolo[1,5-a]pyrimidine-6-carboxamide] | 160 | > 10000 | >63
